From patent US6136992A, “2-alkoxy estradiols and derivatives thereof” (The United States of America as represented by the …, priority 1998, dated 2000) come the findings set out here.

What all share (assay type): cell-based
One experiment relates to NCI-H23. Kind of experiment: NCI screen, non-small cell lung cancer. The settings on record: Homo sapiens, read-out: Log10 GI50, NCI-H23 (converted).
Another experiment has as its system SW-260. Kind of experiment: NCI screen, colon cancer. To be noted: Homo sapiens, read-out: Log10 GI50, SW-260 (converted).
In experiment [1] the test system is MDA-MB-435 breast cancer cells. Kind of experiment: NCI in vitro anticancer screen, MDA-MB-435 breast cancer. The settings on record: Homo sapiens. The source says: The effects of the analogs on cancer cell growth was investigated in the National Cancer Institute (NCI) Developmental Therapeutics Program's in vitro panel of approximately 55 cell lines (Grever et al., Seminars in Oncology 19:622 (1992), Alley et al., Cancer Research 48:589 (1988) and Montes et al., J. National Cancer Institute 83:757 (1991)).

For another experiment, the system named is RPMI-8226. Kind of experiment: NCI screen, leukemia. To be noted: Homo sapiens, read-out: Log10 GI50, RPMI-8226 (converted).
For experiment [2], the system named is all human cancer cell lines (approximately 55). Kind of experiment: NCI in vitro anticancer screen, all cell lines. The source says: (§1) The effects of the analogs on cancer cell growth was investigated in the National Cancer Institute (NCI) Developmental Therapeutics Program's in vitro panel of approximately 55 cell lines (Grever et al., Seminars in Oncology 19:622 (1992), Alley et al., Cancer Research 48:589 (1988) and Montes et al., J. National Cancer Institute 83:757 (1991)). Representative results are listed in Table 1 for HOP-62 non-small-cell lung cancer cells, HCT-116 colon cancer cells, SF-539 central nervous system (CNS) cancer cells, UACC-62 melanoma cells, OVCAR ovarian cancer cells, SN12-C renal cancer cells, DU-145 prostate cancer cells, and MDA-MB-435 breast cancer cells.
^b Mean graph midpoint for all human cancer cell lines (approximately

The test system of another experiment is SK-MEL-28. Kind of experiment: NCI screen, melanoma. To be noted: Homo sapiens, read-out: Log10 GI50, SK-MEL-28 (converted).
The subject of another experiment is LOX IMVI. Kind of experiment: NCI screen, melanoma. To be noted: Homo sapiens, read-out: Log10 GI50, LOX IMVI (converted).
Another experiment deals with 786-0. Kind of experiment: NCI screen, renal cancer. To be noted: Homo sapiens, read-out: Log10 GI50, 786-0 (converted).
For another experiment, the system named is HTC-15. Kind of experiment: NCI screen, colon cancer. The settings on record: Homo sapiens, read-out: Log10 GI50, HTC-15 (converted).
The subject of the next experiment is SNB-75. Kind of experiment: NCI screen, CNS cancer. To be noted: Homo sapiens, read-out: Log10 GI50, SNB-75 (converted).
A further experiment concerns MDA-N. Kind of experiment: NCI screen, breast cancer. The settings on record: Homo sapiens, read-out: Log10 GI50, MDA-N (converted).
In the next experiment the test system is HS 578T. Kind of experiment: NCI screen, breast cancer. The settings on record: Homo sapiens, read-out: Log10 GI50, HS 578T (converted).
Another experiment relates to SNB-19. Kind of experiment: NCI screen, CNS cancer. To be noted: Homo sapiens, read-out: Log10 GI50, SNB-19 (converted).
The subject of a further experiment is OVCAR-8. Kind of experiment: NCI screen, ovarian cancer. The settings on record: Homo sapiens, read-out: Log10 GI50, OVCAR-8 (converted).
Another experiment has as its system U251. Kind of experiment: NCI screen, CNS cancer. To be noted: Homo sapiens, U-251, read-out: Log10 GI50, U251 (converted).
The test system of the next experiment is ACHN. Kind of experiment: NCI screen, renal cancer. To be noted: Homo sapiens, read-out: Log10 GI50, ACHN (converted).
Experiment [3] concerns HCT-116 colon cancer cells. Kind of experiment: NCI in vitro anticancer screen, HCT-116 colon cancer. To be noted: Homo sapiens.
Text: as §1
(§2) ^a The cytotoxicity GI50 values are the concentrations

The subject of a further experiment is M14. Kind of experiment: NCI screen, melanoma. To be noted: Homo sapiens, read-out: Log10 GI50, M14 (converted).
In experiment [4] the test system is SF-539 central nervous system (CNS) cancer cells. Kind of experiment: NCI in vitro anticancer screen, SF-539 CNS cancer. The settings on record: Homo sapiens.
Text: as §1, §2

Like-named read-outs stand apart in the source and are kept apart here.

Turning to `C[C@]12CC[C@@H]3c4cc(OCC(F)(F)F)c(O)cc4C(=NO)C[C@H]3[C@@H]1CC[C@@H]2O` [Compound 12, 2-(2',2', 2'-Trifluoroethoxy)-6-Hydroximino-Estra-1,3,5(10)-Triene-3,17β-Diol], the GI50 (commonly the concentration that inhibits growth by half) in the experiment with NCI-H23 was < 0.01 µM; with SW-260, < 0.01 µM; in [1] (MDA-MB-435, read-out: cytotoxicity GI50, Breast MDA-MB-435), < 0.01 µM; in experiment [1] (MDA-MB-435, Breast Cancer, read-out: Log10 GI50, MDA-MB-435 (converted)), < 0.01 µM; with RPMI-8226, < 0.01 µM; in experiment [2] (10^-8 molar is the lowest concentration normally investigated, read-out: GI50), < 0.01 µM. Further, the GI50 in experiment [2] (approximately 55 cell lines, read-out: MGM (mean graph midpoint for all human cancer cell lines), GI50) was 0.01 µM; in experiment [2] (average of all cell lines of Table 2, read-out: Log10 GI50, Average (all cell lines) (converted)) it was < 0.01 µM; with SK-MEL-28, < 0.01 µM; in the experiment with LOX IMVI it was < 0.01 µM; in the experiment with 786-0 it was < 0.01 µM; in the experiment with HTC-15 it was < 0.01 µM. The GI50 in the experiment on SNB-75, in the experiment with MDA-N, in the experiment with HS 578T, with SNB-19, in the experiment with OVCAR-8 and in the experiment on U251 was < 0.01 µM throughout. In addition, the GI50 in the experiment with ACHN was < 0.01 µM; in experiment [3] (HCT-116, read-out: cytotoxicity GI50, Colon HCT-116), < 0.01 µM; in [3] (HCT-116, Colon Cancer, read-out: Log10 GI50, HCT-116 (converted)), < 0.01 µM; with M14, < 0.01 µM; in experiment [4] (SF-539, CNS Cancer, read-out: Log10 GI50, SF-539 (converted)), < 0.01 µM; in experiment [4] (read-out: cytotoxicity GI50, CNS SF-539) it was < 0.01 µM.
